In patent publication US11447445B2, “Diabetes and metabolic syndrome treatment with a novel dual modulator of soluble epoxide hydrolase and peroxisome proliferator-activated receptors” (priority 2015, dated 2022):
Like-named read-outs stand apart in the source and are kept apart here.

Tests used:
[1] = target: T1, recombinant human sEH (Homo sapiens, UniProt P34913); test: biochemical; conditions: read-out: IC50 sEH (converted)
T1 sequence (P34913 1-555): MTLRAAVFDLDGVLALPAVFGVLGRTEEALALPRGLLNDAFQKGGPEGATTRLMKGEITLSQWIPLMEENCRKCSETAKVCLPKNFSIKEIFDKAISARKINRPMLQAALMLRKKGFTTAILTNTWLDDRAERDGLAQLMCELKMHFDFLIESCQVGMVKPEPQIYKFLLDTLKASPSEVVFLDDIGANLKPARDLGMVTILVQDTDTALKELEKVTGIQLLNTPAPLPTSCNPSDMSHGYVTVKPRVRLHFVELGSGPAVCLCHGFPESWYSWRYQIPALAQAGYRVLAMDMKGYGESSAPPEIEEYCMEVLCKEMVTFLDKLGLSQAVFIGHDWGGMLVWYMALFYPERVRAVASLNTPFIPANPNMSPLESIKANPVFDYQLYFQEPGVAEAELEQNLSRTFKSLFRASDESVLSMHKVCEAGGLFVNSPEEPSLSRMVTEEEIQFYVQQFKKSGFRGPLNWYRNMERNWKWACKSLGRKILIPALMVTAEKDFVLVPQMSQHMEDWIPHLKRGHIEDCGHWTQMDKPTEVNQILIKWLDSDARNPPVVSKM

[2] = target: T2, PPARδ (Homo sapiens, UniProt Q03181); test: PPAR transactivation assay in COS-7 cells (Gal4-hPPAR-LBD, luciferase); format: cell-based
T2 construct: expressed in transfected cells; host or cells: COS-7
Protocol: (§1) COS-7 cells (PPAR) were grown in DMEM high glucose, supplemented with 10% fetal calf serum (FCS), 1% sodium pyruvate (SP) and 1% penicillin/streptomycin (PS) at 37° C. and 5% CO2. Used plasmids for PPAR transactivation assay are shown under supporting informations.
(§2) The day before transfection, COS-7 cells were seeded in 96-well plates with a density of 30,000 cells per well. Transient transfection was carried out using Lipofectamine LTX reagent (Invitrogen, Carlsbad, Calif., USA) according to the manufacturer's protocol with pFR-Luc (Stratagene), pRL-SV40 (Promega) and the Ga14-fusion receptor plasmids (pFA-CMV-hPPAR-LBD) of the respective PPAR subtype. 5 h after transfection, medium was changed to DMEM without phenol red and 10% FCS, supplemented with 1% SP, 1% PS and 1% L-glutamine, now additionally containing 0.1% DMSO and the respective test compound or 0.1% DMSO alone as untreated control. Each concentration was tested in triplicate wells and each experiment was repeated independently at least three times. Following overnight incubation with the test compounds, cells were assayed for luciferase activity using Dual-Glo™ Luciferase Assay System (Promega) according to the manufacturer's protocol. Luminescence was measured with an Infinite m200 luminometer (Tecan Deutschland GmbH). Each concentration of the compounds was tested in triplicate wells. Normalization for transfection efficacy and cell growth was done by division of the firefly luciferase data by renilla luciferase data resulting in relative light units. Activation factors were obtained by dividing by DMSO control. […] All compounds were evaluated by comparison of the achieved maximum effect to that of the reference compound (pioglitazone for PPARγ, GW7647 for PPARa, and L165041 for PPARS each with 1 μM). Data are expressed as mean±SE; n≥3.
(§3) The Gal4-fusion receptor plasmids pFA-CMV-PPARa-LBD, pFA-CMV-PPARS-LBD and pFA-CMV-PPARγ-LBD containing the hinge region and ligand binding domain (LBD) for each of the PPAR subtypes, respectively, were constructed by integrating cDNA fragments obtained from PCR amplification of human monocytes into the SmaI/XbaI cleavage site of the pFA-CMV vector (Stratagene, La Jolla, Calif., USA) and have already been published. […] Frame and sequence of the fusion receptors were verified by sequencing. pFR-Luc (Stratagene) was used as reporter plasmid and pRL-SV40 (Promega) for normalization of transfection efficacy and cell growth.

[3] = target: T3, PPARα (Homo sapiens, UniProt Q07869); format: cell-based; conditions: for PPARα activation @10 μM: at 10 μM
T3 construct: expressed in transfected cells; host or cells: COS-7
Protocol: as §1, §2, §3

T2 sequence (Q03181 211-439): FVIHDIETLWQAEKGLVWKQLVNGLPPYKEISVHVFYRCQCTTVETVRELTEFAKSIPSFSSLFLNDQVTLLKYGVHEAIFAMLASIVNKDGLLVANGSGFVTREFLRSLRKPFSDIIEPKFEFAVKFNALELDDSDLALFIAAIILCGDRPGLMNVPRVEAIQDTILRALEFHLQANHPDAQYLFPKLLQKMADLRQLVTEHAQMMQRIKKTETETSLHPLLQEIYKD
T3 sequence (Q07869 239-466): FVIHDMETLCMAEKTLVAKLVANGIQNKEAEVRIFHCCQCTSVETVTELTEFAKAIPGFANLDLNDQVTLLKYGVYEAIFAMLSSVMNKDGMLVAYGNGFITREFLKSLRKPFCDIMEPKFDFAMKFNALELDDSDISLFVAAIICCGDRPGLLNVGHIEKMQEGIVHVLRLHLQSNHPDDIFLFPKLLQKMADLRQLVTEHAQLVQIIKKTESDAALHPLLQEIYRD

EC50 PPARδ ([2]; i.a. = inactive)	Compound	IC50 [1] [nM]	other results
	CCOC(=O)/C(=C/c1cccc(C(=O)NCc2ccccc2C(F)(F)F)c1)CC [Compound 15a, Ethyl (E)-3-[N-((2-trifluoromethyl)benzyl)benzamide]-alpha-ethylcinnamate]	40 ± 6	
	CC/C(=C\c1ccc(C(=O)NCc2ccccc2Br)cc1)C(=O)O [Compound 5d, (E)-4-[N-((2-Bromo)benzyl)benzamide]-alpha-ethylcinnamic acid]	2400	
n.t. i.a. i.a. n.t.	CCC(Cc1ccc(C(=O)NCc2ccc(OC(F)(F)F)cc2)cc1)C(=O)O (centres unmarked) [Compound 9c, 2-Ethyl 3-[4-(N-((4-trifluoromethoxy)benzyl)benzamide)]propionic acid]		
	CC/C(=C\c1cccc(C(=O)NCc2ccccc2C(F)(F)F)c1)C(=O)O [Compound 15d, (E)-3-[N-((2-Trifluoromethyl)benzyl)benzamide]-alpha-ethylcinnamic acid]	400 ± 100	
	CCOC(=O)/C(=C/c1ccc(C(=O)NCc2ccccc2Br)cc1)CC [Compound 5a, Ethyl (E)-4-[N-((2-bromo)benzyl)benzamide]-alpha-ethylcinnamate]	300 ± 80	
	CC/C(=C\c1ccc(C(=O)NCc2ccccc2C)cc1)C(=O)O [Compound 3d, (E)-4-[N-((2-Methyl)benzyl)benzamide]-alpha-ethylcinnamic acid]	10000	
n.t. i.a. i.a. n.t.	CCOC(=O)C(CC)Cc1ccc(C(=O)NCc2ccc(OC(F)(F)F)cc2)cc1 (centres unmarked) [Compound 9b, Ethyl 2-ethyl 3-[4-(N-((4-trifluoromethoxy)benzyl)benzamide)]propanoate]		
	CCOC(=O)/C(=C/c1ccc(C(=O)NCc2ccc(OC(F)(F)F)cc2)cc1)CC [Compound 9a, Ethyl (E)-4-[N-((4-trifluoromethoxy)benzyl)benzamide]-alpha-ethylcinnamate]	880 ± 100	
	CCOC(=O)/C(=C/c1ccc(C(=O)NCc2ccc(OC)cc2C(F)(F)F)cc1)CC [Compound 14a]	50 ± 9	
	CC/C(=C\c1ccc(C(=O)NCc2ccc(F)cc2)cc1)C(=O)O [Compound 7d, (E)-4-[N-((4-Fluoro)benzyl)benzamide]-alpha-ethylcinnamic acid]	6700	
	CCOC(=O)C(CC)Cc1ccc(C(=O)NCc2ccccc2)cc1 (centres unmarked) [Compound 2b, Ethyl 2-ethyl 3-[4-(N-benzylbenzamide)]propanoate]		EC50 PPARα [3]: n.t. i.a. i.a. n.t.; EC50 PPARδ [2]: n.t. i.a. i.a. n.t.
n.t. i.a. i.a. n.t.	CCOC(=O)C(CC)Cc1ccc(C(=O)NCc2ccccc2Cl)cc1 (centres unmarked) [Compound 4b, Ethyl 2-ethyl 3-[4-(N-((2-chloro)benzyl)benzamide)]propanoate]		EC50 PPARα ([3]; i.a. = inactive): n.t. i.a. i.a. n.t.
n.t. i.a. i.a. n.t.	CCC(Cc1ccc(C(=O)NCc2ccc(F)cc2C(F)(F)F)cc1)C(=O)O (centres unmarked) [Compound 13c, 2-Ethyl 3-[4-(N-(4-fluoro(2-trifluoromethyl)benzyl)benzamide)]propionic acid]		EC50 PPARα ([3]; i.a. = inactive): n.t. i.a. i.a. n.t.
	CCOC(=O)/C(=C/c1ccc(C(=O)NCc2ccc(F)cc2)cc1)CC [Compound 7a, Ethyl (E)-4-[N-((4-fluoro)benzyl)benzamide]-alpha-ethylcinnamate]	62 ± 3	
	CCOC(=O)/C(=C/c1ccc(C(=O)NCc2ccccc2Cl)cc1)CC [Compound 4a, Ethyl (E)-4-[N-((2-chloro)benzyl)benzamide]-alpha-ethylcinnamate]	410 ± 140	
	CC/C(=C\c1ccc(C(=O)NCc2ccc(OC)cc2)cc1)C(=O)O [Compound 10d, (E)-4-[N-((4-Methoxy)benzyl)benzamide]-alpha-ethylcinnamic acid]	13000	
	CC/C(=C\c1ccc(C(=O)NCc2ccc(OC)cc2C(F)(F)F)cc1)C(=O)O [Compound 14d]	400	
	CC/C(=C\c1ccc(C(=O)NCc2ccc(Oc3ccccc3)cc2)cc1)C(=O)O [Compound 12d, (E)-4-[N-((4-Phenoxy)benzyl)benzamide]-alpha-ethylcinnamic acid]	800	
	CCOC(=O)/C(=C/c1ccc(C(=O)NCc2ccc(Oc3ccccc3)cc2)cc1)CC [Compound 12a, Ethyl (E)-4-[N-((4-phenoxy)benzyl)benzamide]-alpha-ethylcinnamate]	1400 ± 60	
	CC/C(=C\c1ccc(C(=O)NCc2ccccc2Cl)cc1)C(=O)O [Compound 4d, (E)-4-[N-((2-Chloro)benzyl)benzamide]-alpha-ethylcinnamic acid]	2800	
	CC/C(=C\c1ccc(C(=O)NCc2ccc(F)cc2C(F)(F)F)cc1)C(=O)O [Compound 13d, (E)-4-[N-((4-Fluoro(2-trifluoromethyl))benzyl)benzamide]-alpha-ethylcinnamic acid]	1200	
	CC/C(=C\c1ccc(C(=O)NCc2ccccc2OC(F)(F)F)cc1)C(=O)O [Compound 6d, (E)-4-[N-((2-Trifluoromethoxy)benzyl)benzamide]-alpha-ethylcinnamic acid]	900	
	CCOC(=O)/C(=C/c1ccc(C(=O)NCc2ccccc2C)cc1)CC [Compound 3a, Ethyl (E)-4-[N-((2-methyl)benzyl)benzamide]-alpha-ethylcinnamate]	760 ± 50	
	CC/C(=C\c1ccc(C(=O)NCc2ccccc2)cc1)C(=O)O [Compound 2d, (E)-4-[N-Benzylbenzamide]-alpha-ethylcinnamic acid]	9300	
	CCOC(=O)/C(=C/c1ccc(C(=O)NCc2ccc(F)cc2C(F)(F)F)cc1)CC [Compound 13a]	100 ± 10	
n.t. i.a. i.a. n.t.	CCOC(=O)C(CC)Cc1ccc(C(=O)NCc2ccc(F)cc2C(F)(F)F)cc1 (centres unmarked) [Compound 13b, Ethyl 2-ethyl 3-[4-(N-(4-fluoro(2-trifluoromethyl)benzyl)benzamide)]propanoate]		EC50 PPARα ([3]; i.a. = inactive): n.t. i.a. i.a. n.t.
	CC/C(=C\c1ccc(C(=O)NCc2ccc(OC(F)(F)F)cc2)cc1)C(=O)O [Compound 9d, (E)-4-[N-((4-Trifluoromethoxy)benzyl)benzamide]-alpha-ethylcinnamic acid]	1600	
	CCOC(=O)/C(=C/c1ccc(C(=O)NCc2ccc(C(F)(F)F)cc2)cc1)CC [Compound 8a, Ethyl (E)-4-[N-((4-trifluoromethyl)benzyl)benzamide]-alpha-ethylcinnamate]	550 ± 60	
n.t. i.a. i.a. n.t.	CCC(Cc1ccc(C(=O)NCc2ccc(C(F)(F)F)cc2)cc1)C(=O)O (centres unmarked) [Compound 8c, 2-Ethyl 3-[4-(N-((4-trifluoromethyl)benzyl)benzamide)]propionic acid]		

Compound	EC50 PPARδ ([2]; i.a. = inactive)	IC50 [1] [nM]	other results
CCOC(=O)C(CC)Cc1ccc(C(=O)NCc2ccc(Oc3ccccc3)cc2)cc1 (centres unmarked) [Compound 12b, Ethyl 2-ethyl 3-[4-(N-((4-phenoxy)benzyl)benzamide)]propanoate]	i.a.		Emax-% PPARα (maximum activation in percent) ([3]; compared to GW7647 1 μM): 110%
CCOC(=O)C(CC)Cc1ccc(C(=O)NCc2ccccc2C)cc1 (centres unmarked) [Compound 3b, Ethyl 2-ethyl 3-[4-(N-((2-methyl)benzyl)benzamide)]propanoate]	n.t. i.a. i.a. n.t.		PPARα activation @10 μM ([3]; compared to GW7647 1 μM): 15%
CCOC(=O)C(CC)Cc1ccc(C(=O)NCc2ccc(OC)cc2C(F)(F)F)cc1 (centres unmarked) [Compound 14b, Ethyl 2-ethyl 3-[4-(N-(4-methoxy(2-trifluoromethyl)benzyl)benzamide)]propanoate]	n.t. i.a. i.a. n.t.		PPARα activation @10 μM ([3]; compared to GW7647 1 μM): 22%
CCOC(=O)C(CC)Cc1ccc(C(=O)NCc2ccc(C(F)(F)F)cc2)cc1 (centres unmarked) [Compound 8b, Ethyl 2-ethyl 3-[4-(N-((4-trifluoromethyl)benzyl)benzamide)]propanoate]	n.t. i.a. i.a. n.t.		PPARα activation @10 μM ([3]; compared to GW7647 1 μM): 22%
